Assay results reported in patent US9481654B2, “Compositions and methods for inhibition of the JAK pathway” (Rigel Pharmaceuticals, Inc., priority 2006, dated 2016).
Where a name gives a salt, the structure may show the parent alone.

What was measured:
[1] = tested on: primary human T-cells (IL-2 induced proliferation, JAK-1/JAK-3, Stat-5); test: Primary Human T-Cell Proliferation Assay Stimulated with IL-2 (CellTiter-Glo); format: cell-based; settings: Table III Example 4
Protocol: In this assay, primary human T-cells derived from peripheral blood and pre-activated through stimulation of the T-cell receptor and CD28, proliferate in culture in response to the cytokine Interleukin-2 (IL-2). This proliferative response is dependent on the activation of JAK1 and JAK3 tyrosine kinases, which phosphorylate and activate the transcription factor Stat-5. The primary human T-cells are incubated with the 2,4-pyrimidinediamine compounds in the presence of IL-2 for 72 hours, and at the assay endpoint intracellular ATP concentrations are measured to assess cell viability. A reduction in cell proliferation compared to control conditions is indicative of inhibition of the JAK kinase pathway.
Primary human T-cells derived from peripheral blood and pre-activated through stimulation of the T-cell receptor and CD28 proliferate in vitro in response to the cytokine Interleukin-2 (IL-2). This proliferative response is dependent on the activation of JAK-1 and JAK-3 tyrosine kinases, which phosphorylate and activate the transcription factor Stat-5.
Human primary T cells were prepared as follows. […] The lymphocytes at the serum: ficoll interface were recovered and washed twice with 5 volumes of PBS. […] The primary T-cells were stimulated for 3 to 4 days, then transferred to a fresh flask and maintained in RPMI with 10% FBS and 40 U/mL IL-2.
Primary T-cells were washed twice with PBS to remove the IL-2 and resuspended in Yssel's medium at 2×10^6 cells/mL. 50 μL of cell suspension containing 80 U/mL IL-2 was added to each well of a flat bottom 96 well black plate. For the unstimulated control, IL-2 was omitted from the last column on the plate. […] 50 μL of 2× compound was added per well in duplicate and the cells were allowed to proliferate for 72 hours at 37° C.
Proliferation was measured using CellTiter-Glo® Luminescent Cell Viability Assay (Promega), which determines the number of viable cells in culture based on quantitation of the ATP present, as an indicator of metabolically active cells. The substrate was thawed and allowed to come to room temperature. After mixing the Cell Titer-Glo reagent and diluent together, 100 μL was added to each well. The plates were mixed on an orbital shaker for two minutes to induce lysis and incubated at room temperature for an additional ten minutes to allow the signal to equilibrate.

[2] = tested on: IL-4 stimulated CD23 upregulation in human Ramos B cells (JAK-1/JAK-3, Stat-6); test: Assay for Ramos B-Cell Line Stimulated with IL-4 (CD23 upregulation, FACS); format: cell-based
Text: One means of assaying for such inhibition is detection of the effect of the 2,4-pyrimidinediamine compounds on the upregulation of downstream gene products. In the Ramos/IL4 assay, B-cells are stimulated with the cytokine Interleukin-4 (IL-4) leading to the activation of the JAK/Stat pathway through phosphorylation of the JAK family kinases, JAK1 and JAK3, which in turn phosphorylate and activate the transcription factor Stat-6. […] To study the effect of inhibitors (e.g., the 2,4-substituted pyrimindinediamine compounds described herein) on the JAK1 and JAK3 kinases, human Ramos B cells are stimulated with human IL-4. 20 to 24 hours post stimulation, cells are stained for upregulation of CD23 and analyzed using flow cytometry (FACS).
B-cells stimulated with cytokine Interleukin-4 (IL-4) activate the JAK/Stat pathway through phosphorylation of the JAK family kinases, JAK-1 and JAK-3, which in turn phosphorylate and activate the transcription factor Stat-6. […] To study the effect of inhibitors on the JAK family kinases, human Ramos B cells are stimulated with human IL-4.
Cells were maintained at a density of 3.5×10^5. The day before the experiment, Ramos B-cells were diluted to 3.5×10^5 cells/mL to ensure that they were in a logarithmic growth phase.
Cells were spun down and suspended in RPMI with 5% serum. 5×10^4 cells were used per point in a 96-well tissue culture plate. Cells were pre-incubated with compound or DMSO (Sigma-Aldrich, St. Louis, Mo., Cat No. D2650) vehicle control for 1 hour in a 37° C. incubator. Cells were then stimulated with IL-4 (Peprotech Inc., Rocky Hill, N.J., Cat No. 200-04) for a final concentration of 50 units/mL for 20-24 hours. […] Detection was performed using a BD LSR I System Flow Cytometer, purchased from Becton Dickinson Biosciences of San Jose, Calif.

[3] = Table III Example 3, sodium salt

Molecule `CS(=O)(=O)CS(=O)(=O)NCc1ccc(Nc2nc(Nc3cccc(S(N)(=O)=O)c3)ncc2F)cc1` [Compound I-86, N2-(3-aminosulfonyl)phenyl-5-fluoro-N4-[4-(methylsulfonylmethylsulfonylamino)methyl]phenyl-2,4-pyrimidinediamine] has an IC50 [1] of 224 nM and an IC50 ([2]; Table III Example 3) of 505 nM.
Molecule `Cc1cnc(Nc2ccc(S(=O)(=O)NCc3ccncc3)cc2)nc1Nc1ccc(CNS(=O)(=O)C2CC2)cc1` [Compound I-168, N4-(4-cyclopropylsulfonylaminomethyl)phenyl-5-methyl-N2-[4-(4-pyridylmethyl)aminosulfonyl]phenyl-2,4-pyrimidinediamine] has an IC50 [1] of 347 nM and an IC50 ([2]; Table III Example 3) of 278 nM.
Work on `CCS(=O)(=O)N[C@H](C)c1ccc(Nc2nc(Nc3ccc(S(N)(=O)=O)cc3)ncc2F)cc1` [Compound I-29, N2-(4-aminosulfonyl)phenyl-N4-[4-(1R-ethylsulfonylamino)ethyl]phenyl-5-fluoro-2,4-pyrimidinediamine] yielded an IC50 [1] of 882 nM and an IC50 ([2]; Table III Example 3) of 203 nM.
Molecule `Cc1cnc(Nc2cccc(S(=O)(=O)NC3CCN(C)CC3)c2)nc1Nc1cccc(CNS(=O)(=O)C2CC2)c1` [Compound I-160, N4-(3-cyclopropylsulfonylaminomethyl)phenyl-5-methyl-N2-[3-(1-methylpiperidin-4-yl)aminosulfonyl]phenyl-2,4-pyrimidinediamine] has an IC50 [1] of 3960 nM and an IC50 ([2]; Table III Example 3) of 242 nM.
With `Cc1cnc(Nc2ccc(S(=O)(=O)Nc3ccccc3)cc2)nc1Nc1cccc(CNS(=O)(=O)C2CC2)c1` [Compound I-155, N4-(3-cyclopropylsulfonylaminomethyl)phenyl-5-methyl-N2-(4-phenylaminosulfonyl)phenyl-2,4-pyrimidinediamine] the IC50 [1] was 1430 nM and the IC50 ([2]; Table III Example 3) was 250 nM.
`NS(=O)(=O)c1ccc(Nc2ncc(F)c(Nc3cccc(CNS(=O)(=O)C4CC4)c3)n2)cc1` [Compound I-32, N2-(4-aminosulfonyl)phenyl-N4-(3-cyclopropylsulfonylaminomethyl)phenyl-5-fluoro-2,4-pyrimidinediamine] gave an IC50 [1] of 1560 nM and an IC50 ([2]; Table III Example 3) of 364 nM.
`CCS(=O)(=O)N[C@@H](C)c1ccc(Nc2nc(Nc3ccc(S(N)(=O)=O)cc3)ncc2F)cc1` [Compound I-26, N2-(4-aminosulfonyl)phenyl-N4-[4-(1S-ethylsulfonylamino)ethyl]phenyl-5-fluoro-2,4-pyrimidinediamine] was tested, and the IC50 [1] was 1160 nM and the IC50 ([2]; Table III Example 3) was 252 nM.
In the case of `NS(=O)(=O)c1ccc(Nc2ncc(F)c(Nc3ccc(CNS(=O)(=O)c4cccnc4)cc3)n2)cc1` [Compound I-89, N2-(4-aminosulfonyl)phenyl-5-fluoro-N4-[4-(pyrid-3-yl)sulfonylaminomethyl]phenyl-2,4-pyrimidinediamine], the IC50 [1] is reported as 1500 nM and the IC50 ([2]; Table III Example 3) is reported as 448 nM.
Molecule `CS(=O)(=O)CS(=O)(=O)NCc1ccc(Nc2nc(Nc3ccc(S(N)(=O)=O)cc3)ncc2F)cc1` [Compound I-85, N2-(4-aminosulfonyl)phenyl-5-fluoro-N4-[4-(methylsulfonylmethylsulfonylamino)methyl]phenyl-2,4-pyrimidinediamine] has an IC50 [1] of 3900 nM and an IC50 ([2]; Table III Example 3) of 3100 nM.
`Cc1cnc(Nc2ccc(S(=O)(=O)Nc3ccccc3)cc2)nc1Nc1ccc(CNS(=O)(=O)C2CC2)cc1` [Compound I-149, N4-(4-cyclopropylsulfonylaminomethyl)phenyl-5-methyl-N2-(4-phenylaminosulfonyl)phenyl-2,4-pyrimidinediamine] was tested, and the IC50 [1] was 190 nM and the IC50 ([2]; Table III Example 3) was 82.2 nM.
Molecule `Cc1ccc(Nc2ncc(F)c(Nc3ccc(CNS(=O)(=O)CS(C)(=O)=O)cc3)n2)cc1S(N)(=O)=O` [Compound I-87, N2-(3-aminosulfonyl-4-methyl)phenyl-5-fluoro-N4-[4-(methylsulfonylmethylsulfonylamino)methyl]phenyl-2,4-pyrimidinediamine] has an IC50 [1] of 309 nM and an IC50 ([2]; Table III Example 3) of 251 nM.
With `Cc1cnc(Nc2ccc(S(=O)(=O)NC3CCN(C)CC3)cc2)nc1Nc1cccc(CNS(=O)(=O)C2CC2)c1` [Compound I-159, N4-(3-cyclopropylsulfonylaminomethyl)phenyl-5-methyl-N2-[4-(1-methylpiperidin-4-yl)aminosulfonyl]phenyl-2,4-pyrimidinediamine] the IC50 [1] was 7960 nM and the IC50 ([2]; Table III Example 3) was 539 nM.
Molecule `CCS(=O)(=O)NCc1ccc(Nc2nc(Nc3ccc(C)c(S(N)(=O)=O)c3)ncc2F)cc1Cl` [Compound I-76, N2-(3-aminosulfonyl-4-methyl)phenyl-N4-(3-chloro-4-ethylsulfonylaminomethyl)phenyl-5-fluoro-2,4-pyrimidinediamine] has an IC50 [1] of 463 nM and an IC50 ([2]; Table III Example 3) of 169 nM.
In the case of `CN1CCC(NS(=O)(=O)Cc2cccc(Nc3nc(Nc4cccc(S(N)(=O)=O)c4)ncc3F)c2)CC1` [Compound I-108, N2-(3-Aminosulfonylphenyl)-5-fluoro-N4-[3-(1-methylpiperdin-4-ylaminosulfonylmethylene)phenyl]-2,4-pyrimidinediamine], the IC50 [1] is reported as 25800 nM and the IC50 ([2]; Table III Example 3) is reported as 5160 nM.
`Cc1ccc(Nc2ncc(F)c(Nc3cccc(CS(=O)(=O)NC4CCN(C)CC4)c3)n2)cc1S(N)(=O)=O` [Compound I-107, N2-(3-Aminosulfonyl-4-methylphenyl)-5-fluoro-N4-[3-(1-methylpiperdin-4-ylaminosulfonylmethylene)phenyl]-2,4-pyrimidinediamine] showed an IC50 [1] of 18100 nM and an IC50 ([2]; Table III Example 3) of 2930 nM.
Molecule `CCCC(=O)N(COC(C)=O)S(=O)(=O)c1cccc(Nc2ncc(C)c(Nc3cccc(CNS(=O)(=O)C4CC4)c3)n2)c1` [Compound I-225, N2-[3-(N-acetoxymethyl-N-butyryl)aminosulfonyl]phenyl-N4-(3-cyclopropylsulfonylaminomethyl)phenyl-5-methyl-2,4-pyrimidinediamine] has an IC50 ([2]; Table III Example 3) of 115 nM.
In the case of `CCC(=O)NS(=O)(=O)c1cccc(Nc2ncc(F)c(Nc3ccc(CNS(=O)(=O)C4CC4)cc3)n2)c1` [Compound I-57, N4-(4-cyclopropylsulfonylaminomethyl)phenyl-5-fluoro-N2-(3-propionylaminosulfonyl)phenyl-2,4-pyrimidinediamine], the IC50 ([2]; Table III Example 3) is reported as 12300 nM.
Molecule `Cc1cnc(Nc2ccc(S(=O)(=O)NC(=O)C(C)C)cc2)nc1Nc1ccc(CN(C(=O)C(C)C)S(=O)(=O)C2CC2)cc1` [Compound I-201, N4-[4-(N-cyclopropylsulfonyl-N-isobutyryl)aminomethyl]phenyl-N2-(4-isobutyrylaminosulfonyl)phenyl-5-methyl-2,4-pyrimidinediamine sodium salt] has an IC50 [2, 3] of 1210 nM.
`CCC(=O)NS(=O)(=O)c1cccc(Nc2ncc(C)c(Nc3cccc(CNS(=O)(=O)C4CC4)c3)n2)c1` [Compound I-137, N4-(3-cyclopropylsulfonylaminomethyl)phenyl-5-methyl-N2-(3-propionylaminosulfonyl)phenyl-2,4-pyrimidinediamine sodium salt] showed an IC50 [2, 3] of 1910 nM.
`Cc1cnc(Nc2cccc(S(=O)(=O)NC(=O)C(C)C)c2)nc1Nc1cccc(CN(C(=O)C(C)C)S(=O)(=O)C2CC2)c1` [Compound I-198, N4-[3-(N-cyclopropylsulfonyl-N-isobutyryl)aminomethyl]phenyl-N2-(3-isobutyrylaminosulfonyl)phenyl-5-methyl-2,4-pyrimidinediamine] was tested, and the IC50 ([2]; Table III Example 3) was 2050 nM.
Work on `CCCC(=O)NS(=O)(=O)c1ccc(Nc2ncc(C)c(Nc3ccc(CN(C(=O)CCC)S(=O)(=O)C4CC4)cc3)n2)cc1` [Compound I-206, N2-(4-butyrylaminosulfonyl)phenyl-N4-[4-(N-butyryl-N-cyclopropylsulfonyl)aminomethyl]phenyl-5-methyl-2,4-pyrimidinediamine sodium salt] yielded an IC50 [2, 3] of 946 nM.
